Measurements: ChEMBL document CHEMBL1128956, “Irreversible inhibitions of serine proteases by peptidyl allylic halide derivatives” (Bioorg Med Chem Lett, 1996)

Legend:
[1] = molecular target: T1, Chymotrypsin-like elastase family member 2A (Sus scrofa) (UniProt P08419); experiment: Compound was tested for inhibitory activity toward porcine pancreatic elastase.
T1 sequence (whole entry): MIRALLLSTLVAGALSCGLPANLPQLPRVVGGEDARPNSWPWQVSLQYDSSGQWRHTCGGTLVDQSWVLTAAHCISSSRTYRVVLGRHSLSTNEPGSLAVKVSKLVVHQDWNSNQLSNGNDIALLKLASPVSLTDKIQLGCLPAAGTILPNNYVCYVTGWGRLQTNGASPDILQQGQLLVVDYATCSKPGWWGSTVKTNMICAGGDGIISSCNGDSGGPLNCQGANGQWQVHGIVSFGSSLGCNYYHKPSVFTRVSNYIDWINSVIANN

[2] = molecular target: Chymotrypsinogen A (Bos taurus) (UniProt P00766); experiment: Compound was tested for inhibitory activity towards alpha-chymotrypsin expressed as second order rate constant values
[3] = molecular target: Chymotrypsinogen A (Bos taurus) (UniProt P00766); experiment: Compound was tested for inhibitory activity against alpha-chymotrypsin
[4] = molecular target: T1, Chymotrypsin-like elastase family member 2A (Sus scrofa); experiment: Compound was tested for inhibitory activity toward porcine pancreatic elastase expressed as second order rate constant values: No inactivation
[5] = molecular target: Chymotrypsinogen A (Bos taurus) (UniProt P00766); experiment: Compound was tested for inhibitory activity against alpha-chymotrypsin
[6] = molecular target: Chymotrypsinogen A (Bos taurus) (UniProt P00766); experiment: Compound was tested for inhibitory activity towards alpha-chymotrypsin expressed as second order rate constant values
[7] = molecular target: Chymotrypsinogen A (Bos taurus) (UniProt P00766); experiment: Compound was tested for inhibitory activity towards alpha-chymotrypsin expressed as second order rate constant values; No inactivation

| Concentration [1] [µM] | k obs / concentration [2] [M⁻¹ s⁻¹] | Concentration [3] [µM] | k obs / concentration [4] | Concentration [5] [mM] | k obs / concentration [6] [M⁻¹ s⁻¹] | k obs / concentration [7] | Compound |
| --- | --- | --- | --- | --- | --- | --- | --- |
| 25 | 215 | 25 | No inactivation | – | – | – | O=C(CNC(=O)OCc1ccccc1)N[C@H](/C=C/CBr)Cc1ccccc1 |
| 97 | 61 | 17 | No inactivation | – | – | – | O=C(CNC(=O)OCc1ccccc1)NCC(=O)N[C@H](/C=C/CCl)Cc1ccccc1 |
| – | – | – | – | 0.476 | 0.8 | – | CC(=O)N[C@H](/C=C/CCl)Cc1ccccc1 |
| – | – | – | – | 13.5 | – | No inactivation | CC(=O)N[C@H](/C=C/CF)Cc1ccccc1 |
| 15 | 1240 | 7 | No inactivation | – | – | – | O=C(CNC(=O)OCc1ccccc1)NCC(=O)N[C@H](/C=C/CBr)Cc1ccccc1 |
| 101 | 14 | 101 | No inactivation | – | – | – | CC(=O)N[C@H](/C=C/CBr)Cc1ccccc1 |
| – | – | – | – | 1.05 | – | No inactivation | O=C(CNC(=O)OCc1ccccc1)N[C@H](/C=C/CF)Cc1ccccc1 |
| 600 | 12 | 28 | No inactivation | – | – | – | O=C(CNC(=O)OCc1ccccc1)N[C@H](/C=C/CCl)Cc1ccccc1 |
| – | – | – | – | 4.4 | – | No inactivation | O=C(CNC(=O)OCc1ccccc1)NCC(=O)N[C@H](/C=C/CF)Cc1ccccc1 |
